From patent publication US20060111366A1, “Pharmaceutical use of substituted amides” (Novo Nordisk A/S, priority 2003, published 2006)

These molecules were tested against T1, h-11βHSD1 (Homo sapiens, UniProt P28845) (assay: 11βHSD1 enzyme assay (scintillation proximity assay, conversion of 3H-cortisone to 3H-cortisol)). Settings: extract of yeast transformed with h-11βHSD1; 120 nM 3H-cortisone, 4 mM β-NADPH, 60 min at 30° C.
T1 construct: made in house
Assay type: biochemical
Method: ^3H-cortisone and anti-rabbit Ig coated scintillation proximity assay (SPA) beads were purchased from Amersham Pharmacia Biotech, β-NADPH was from Sigma and rabbit anticortisol antibodies were from Fitzgerald. An extract of yeast transformed with h-11βHSD1 (Hult et al., FEBS Lett., 441, 25 (1998)) was used as the source of enzyme. The test compounds were dissolved in DMSO (10 mM). All dilutions were performed in a buffer containing 50 mM TRIS-HCl (Sigma Chemical Co), 4 mM EDTA (Sigma Chemical Co), 0.1% BSA (Sigma Chemical Co), 0.01% Tween-20 (Sigma Chemical Co) and 0.005% bacitracin (Novo Nordisk A/S), pH=7.4. Optiplate 96 wells plates were supplied by Packard. The amount of ^3H-cortisol bound to the SPA beads was measured on TopCount NXT, Packard.
h-11βHSD1, 120 nM ^3H-cortisone, 4 mM β-NADPH, antibody (1:200), serial dilutions of test compound and SPA particles (2 mg/well) were added to the wells. The reaction was initiated by mixing the different components and was allowed to proceed under shaking for 60 min at 30° C. […] Data was analysed using GraphPad Prism software.

T1 sequence (P28845 whole entry): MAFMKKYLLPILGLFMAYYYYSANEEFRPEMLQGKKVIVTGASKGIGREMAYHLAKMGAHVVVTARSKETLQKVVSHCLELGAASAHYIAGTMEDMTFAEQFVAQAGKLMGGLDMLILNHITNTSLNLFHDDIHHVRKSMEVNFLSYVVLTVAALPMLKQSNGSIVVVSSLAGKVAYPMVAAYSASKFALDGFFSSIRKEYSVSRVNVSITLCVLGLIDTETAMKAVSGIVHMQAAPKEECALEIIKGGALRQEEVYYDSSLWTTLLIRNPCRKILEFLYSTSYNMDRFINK

Question: CN1CCC(N(C)C(=O)CCCOc2ccccc2)CC1 [(I) 2, N-Methyl-N-(1-methyl-piperidin-4-yl)-4-Phenoxy-butyramide] was tested. Which IC50 did it give?
Answer: The IC50 was 120000 nM.

Question: Which IC50 does the source give for CC1Oc2c(C(=O)N(C)C3CCCCC3)cccc2C1C (stereo not drawn) [(VI) 1, 2,3-Dimethyl-2,3-dihydro-benzofuran-7-carboxylic acid cyclohexyl-methyl-amide] here?
Answer: The IC50 was 6 nM.

Question: How did the IC50 turn out when CN(C(=O)c1ccc2cc[nH]c2c1)C1CCCCC1 [(VII) 2, 1H-Indole-6-carboxylic acid cyclohexyl-methyl-amide] was run?
Answer: Its IC50 is 118 nM.

Question: How did the IC50 turn out when CCCc1c(C(=O)N(C)C2CCCCC2)cnn1-c1ccc(Cl)cc1 [(III) 1, 1-(4-Chloro-phenyl)-5-propyl-1H-pyrazole-4-carboxylic acid cyclohexyl-methyl-amide] was run?
Answer: The IC50 was 40 nM.

Question: CN(C(=O)CCCOc1ccc2c(c1)OCO2)C1CCCCC1 [(I) 1, 4-(Benzo[1,3]dioxol-5-yloxy)-N-cyclohexyl-N-methyl-butyramide] was tested. Which IC50 did it give?
Answer: The IC50 was 560 nM.

Question: How did the IC50 turn out when CN(C(=O)c1ccc2[nH]cnc2c1)C1CCCCC1 [(V) 1, 1H-Benzoimidazole-5-carboxylic acid cyclohexyl-methyl-amide] was run?
Answer: Its IC50 is 45 nM.
